Test results: patent US10874743B2, “IRAK degraders and uses thereof” (Kymera Therapeutics, Inc., priority 2017, dated 2020)

Target: T1, IRAK4 (Homo sapiens, UniProt Q9NWZ3)
T1 sequence (Q9NWZ3 1-460): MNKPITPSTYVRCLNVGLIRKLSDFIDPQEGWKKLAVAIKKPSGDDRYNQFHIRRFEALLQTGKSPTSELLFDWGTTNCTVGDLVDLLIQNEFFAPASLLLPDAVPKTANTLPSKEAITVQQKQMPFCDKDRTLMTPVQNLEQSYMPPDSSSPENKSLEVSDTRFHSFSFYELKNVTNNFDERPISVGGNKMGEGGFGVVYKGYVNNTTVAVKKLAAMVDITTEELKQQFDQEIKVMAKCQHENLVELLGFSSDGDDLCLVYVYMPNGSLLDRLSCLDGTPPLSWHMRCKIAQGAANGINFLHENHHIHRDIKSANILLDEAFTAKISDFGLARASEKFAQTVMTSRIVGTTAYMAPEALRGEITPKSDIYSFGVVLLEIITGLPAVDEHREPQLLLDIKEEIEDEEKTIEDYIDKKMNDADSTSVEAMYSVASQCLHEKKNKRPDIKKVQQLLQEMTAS
Experiment: OCI-LY-10 degradation assay (western blot, % IRAK4 degraded after 4 hours)
Format: cell-based
Design: endogenous in cells; host or cells: OCI-LY10
Settings: OCI-LY10 cells, 4 hours; for OCI-LY10 % IRAK4 Degradation (0.01 uM): 0.01 uM compound; for OCI-LY10 % IRAK4 Degradation (0.1 uM): 0.1 uM compound; for OCI-LY10 % IRAK4 Degradation (1 uM): 1 uM compound
In short: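 IRAK4 loss after 4 h at 37° C was scored A (>50%), B (>20-50%) or C (<20%) from infrared western blots of RIPA lysates, 20-25 μg protein per lane. Compound was applied at 0.003-10 μM final to OCI-LY10 cells cultured in RPMI-1640 with 20% FBS and 55 μM 2-ME.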

SMILES | OCI-LY10 % IRAK4 Degradation (0.01 uM) | OCI-LY10 % IRAK4 Degradation (0.1 uM) | OCI-LY10 % IRAK4 Degradation (1 uM)
O=C1CCC(N2C(=O)c3cccc(NCCOCCN4CCO[C@H](CNCc5ccc(-n6cc(NC(=O)c7coc(-c8ccnc(NCC9CC9)c8)n7)c(C(F)F)n6)cc5)C4)c3C2=O)C(=O)N1 (stereo partly drawn) [I-330] | C (<20% degradation) | A (>50% degradation) | A (>50% degradation)
Cn1c(=O)n(C2CCC(=O)NC2=O)c2ccc(CCCOCCOCCNCc3ccc(-n4cc(NC(=O)c5coc(-c6ccnc(NCC7CC7)c6)n5)c(C(F)F)n4)cc3)cc21 (stereo not drawn) [I-331] | C (<20% degradation) | B (>20-50% degradation) | C (<20% degradation)
NC(=O)c1nn(-c2ccc(C(=O)NCCCCCNCCNc3cccc4c3C(=O)N(C3CCCNC3=O)C4=O)cc2)cc1NC(=O)c1coc(-c2ccnc(NCC(F)(F)F)c2)n1 (stereo not drawn) [I-333] | C (<20% degradation) | C (<20% degradation) | C (<20% degradation)
O=C1CCC(N2C(=O)c3ccc(NC4CCN(CCOCCOCCNCc5ccc(-n6cc(NC(=O)c7coc(-c8ccnc(NCC9CC9)c8)n7)c(C(F)F)n6)cc5)CC4)cc3C2=O)C(=O)N1 (stereo not drawn) [I-335] | C (<20% degradation) | C (<20% degradation) | A (>50% degradation)
O=C1CCC(N2C(=O)c3cccc(N4CCN(CCOCCOCCNCc5ccc(-n6cc(NC(=O)c7coc(-c8ccnc(NCC9CC9)c8)n7)c(C(F)F)n6)cc5)CC4)c3C2=O)C(=O)N1 (stereo not drawn) [I-336] | C (<20% degradation) | C (<20% degradation) | B (>20-50% degradation)
O=C1CCC(N2C(=O)c3ccc(N4CCN(CCOCCOCCNCc5ccc(-n6cc(NC(=O)c7coc(-c8ccnc(NCC9CC9)c8)n7)c(C(F)F)n6)cc5)CC4)cc3C2=O)C(=O)N1 (stereo not drawn) [I-337] | C (<20% degradation) | A (>50% degradation) | A (>50% degradation)
O=C1CCC(N2C(=O)c3cccc(NC4CN(CCOCCOCCNCc5ccc(-n6cc(NC(=O)c7coc(-c8ccnc(NCC9CC9)c8)n7)c(C(F)F)n6)cc5)C4)c3C2=O)C(=O)N1 (stereo not drawn) [I-338] | C (<20% degradation) | B (>20-50% degradation) | B (>20-50% degradation)
O=C1CCC(N2C(=O)c3ccc(NC4CN(CCOCCOCCNCc5ccc(-n6cc(NC(=O)c7coc(-c8ccnc(NCC9CC9)c8)n7)c(C(F)F)n6)cc5)C4)cc3C2=O)C(=O)N1 (stereo not drawn) [I-339] | C (<20% degradation) | B (>20-50% degradation) | A (>50% degradation)
O=C1CCC(N2C(=O)c3cccc(NCc4cn(CCOCCOCCNCc5ccc(-n6cc(NC(=O)c7coc(-c8ccnc(NCC9CC9)c8)n7)c(C(F)F)n6)cc5)nn4)c3C2=O)C(=O)N1 (stereo not drawn) [I-340] | C (<20% degradation) | A (>50% degradation) | A (>50% degradation)
O=C1CCC(N2C(=O)c3ccc(NCc4cn(CCOCCOCCNCc5ccc(-n6cc(NC(=O)c7coc(-c8ccnc(NCC9CC9)c8)n7)c(C(F)F)n6)cc5)nn4)cc3C2=O)C(=O)N1 (stereo not drawn) [I-341] | C (<20% degradation) | A (>50% degradation) | A (>50% degradation)
O=C1CCC(N2C(=O)c3cccc(NCCc4cnnn4CCOCCOCCNCc4ccc(-n5cc(NC(=O)c6coc(-c7ccnc(NCC8CC8)c7)n6)c(C(F)F)n5)cc4)c3C2=O)C(=O)N1 (stereo not drawn) [I-342] | C (<20% degradation) | B (>20-50% degradation) | A (>50% degradation)
O=C1CCC(N2C(=O)c3ccc(NCCc4cnnn4CCOCCOCCNCc4ccc(-n5cc(NC(=O)c6coc(-c7ccnc(NCC8CC8)c7)n6)c(C(F)F)n5)cc4)cc3C2=O)C(=O)N1 (stereo not drawn) [I-343] | C (<20% degradation) | B (>20-50% degradation) | A (>50% degradation)
O=C1CCC(N2C(=O)c3ccc(OCc4cn(CCOCCOCCNCc5ccc(-n6cc(NC(=O)c7coc(-c8ccnc(NCC9CC9)c8)n7)c(C(F)F)n6)cc5)nn4)cc3C2=O)C(=O)N1 (stereo not drawn) [I-345] | C (<20% degradation) | A (>50% degradation) | A (>50% degradation)
O=C1CCC(N2C(=O)c3cccc(OCCc4cnnn4CCOCCOCCNCc4ccc(-n5cc(NC(=O)c6coc(-c7ccnc(NCC8CC8)c7)n6)c(C(F)F)n5)cc4)c3C2=O)C(=O)N1 (stereo not drawn) [I-346] | B (>20-50% degradation) | A (>50% degradation) | A (>50% degradation)

Further lines, results first:

OCI-LY10 % IRAK4 Degradation (0.01 uM) | OCI-LY10 % IRAK4 Degradation (0.1 uM) | OCI-LY10 % IRAK4 Degradation (1 uM) | SMILES
C (<20% degradation) | A (>50% degradation) | A (>50% degradation) | O=C1CCC(N2C(=O)c3ccc(OCCc4cnnn4CCOCCOCCNCc4ccc(-n5cc(NC(=O)c6coc(-c7ccnc(NCC8CC8)c7)n6)c(C(F)F)n5)cc4)cc3C2=O)C(=O)N1 (stereo not drawn) [I-347]
C (<20% degradation) | C (<20% degradation) | A (>50% degradation) | O=C1CCC(N2C(=O)c3cccc(NCCOCCN4CCN(CCOCCNCc5ccc(-n6cc(NC(=O)c7coc(-c8ccnc(NCC9CC9)c8)n7)c(C(F)F)n6)cc5)CC4)c3C2=O)C(=O)N1 (stereo not drawn) [I-348]
C (<20% degradation) | B (>20-50% degradation) | A (>50% degradation) | O=C1CCC(N2C(=O)c3ccc(NCCOCCN4CCN(CCOCCNCc5ccc(-n6cc(NC(=O)c7coc(-c8ccnc(NCC9CC9)c8)n7)c(C(F)F)n6)cc5)CC4)cc3C2=O)C(=O)N1 (stereo not drawn) [I-349]
C (<20% degradation) | C (<20% degradation) | C (<20% degradation) | Cn1cc(-c2nc(C(=O)Nc3cn(-c4ccc(CNCCOCCOCCNc5ccc6c(c5)C(=O)N(C5CCC(=O)NC5=O)C6=O)cc4)nc3C(F)F)co2)cn1 (stereo not drawn) [I-353]
C (<20% degradation) | A (>50% degradation) | A (>50% degradation) | O=C1CCC(N2C(=O)c3ccc(NCCOCCOCCNCc4ccc(-n5cc(NC(=O)c6coc(-c7ccnc(NCC8CC8)c7)n6)c(C(F)F)n5)cc4)cc3C2=O)C(=O)N1 (stereo not drawn) [I-354]
B (>20-50% degradation) | B (>20-50% degradation) | C (<20% degradation) | CN(CCCc1cccc2c1C(=O)N(C1CCC(=O)NC1=O)C2=O)Cc1ccc(-n2cc(NC(=O)c3coc(-c4ccnc(NCC5CC5)c4)n3)c(C(F)F)n2)cc1 (stereo not drawn) [I-355]
C (<20% degradation) | C (<20% degradation) | C (<20% degradation) | CN(CCCc1cccc2c1C(=O)N(C1CCC(=O)NC1=O)C2=O)Cc1ccc(-n2cc(NC(=O)c3coc(-c4ccncc4)n3)c(C(N)=O)n2)cc1 (stereo not drawn) [I-356]
C (<20% degradation) | C (<20% degradation) | C (<20% degradation) | O=C1CCC(N2C(=O)c3cccc(CCCNCc4ccc(-n5cc(NC(=O)c6coc(-c7ccnc(NCC8CC8)c7)n6)c(C(F)F)n5)cc4)c3C2=O)C(=O)N1 (stereo not drawn) [I-357]
C (<20% degradation) | C (<20% degradation) | C (<20% degradation) | NC(=O)c1nn(-c2ccc(CNCCCc3cccc4c3C(=O)N(C3CCC(=O)NC3=O)C4=O)cc2)cc1NC(=O)c1coc(-c2ccncc2)n1 (stereo not drawn) [I-358]
C (<20% degradation) | C (<20% degradation) | C (<20% degradation) | O=C1CCC(N2C(=O)c3cccc(CNCc4ccc(-n5cc(NC(=O)c6coc(-c7ccncc7)n6)c(C(F)F)n5)cc4)c3C2=O)C(=O)N1 (stereo not drawn) [I-359]
C (<20% degradation) | C (<20% degradation) | C (<20% degradation) | O=C1CCC(N2C(=O)c3cccc(CCCNCc4ccc(-n5cc(NC(=O)c6coc(-c7ccnc(NCC(F)(F)F)c7)n6)c(C(F)F)n5)cc4)c3C2=O)C(=O)N1 (stereo not drawn) [I-361]
C (<20% degradation) | B (>20-50% degradation) | A (>50% degradation) | CN(CCOCCCc1cccc2c1C(=O)N(C1CCC(=O)NC1=O)C2=O)Cc1ccc(-n2cc(NC(=O)c3coc(-c4ccnc(NCC5CC5)c4)n3)c(C(F)F)n2)cc1 (stereo not drawn) [I-362]
